Results: PubChem BioAssay (NCI)
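Method: 48-hour compound exposure of cells in 96-well plates, five concentrations, linear interpolation of endpoints. At the GI50, growth is halved. TGI marks complete inhibition of growth.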

What was measured:
Test in all cases: DTP human tumour cell line panel, 48 h
KM12 colon = test system: KM12 colon
NCI/ADR-RES ovarian = test system: NCI/ADR-RES ovarian
ACHN renal = test system: ACHN renal
SK-MEL-2 melanoma = test system: SK-MEL-2 melanoma
K-562 leukemia = test system: K-562 leukemia
IGROV1 ovarian = test system: IGROV1 ovarian
OVCAR-5 ovarian = test system: OVCAR-5 ovarian
SF-539 CNS = test system: SF-539 CNS
NCI-H460 lung = test system: NCI-H460 lung
U251 CNS = test system: U251 CNS
UACC-62 melanoma = test system: UACC-62 melanoma
SR leukemia = test system: SR leukemia
MDA-MB-231 breast = test system: MDA-MB-231 breast
SNB-75 CNS = test system: SNB-75 CNS
M14 melanoma = test system: M14 melanoma
TK-10 renal = test system: TK-10 renal
PC-3 prostate = test system: PC-3 prostate
RPMI-8226 leukemia = test system: RPMI-8226 leukemia
SW-620 colon = test system: SW-620 colon
HS 578T breast = test system: HS 578T breast
LOX IMVI melanoma = test system: LOX IMVI melanoma
BT-549 breast = test system: BT-549 breast
OVCAR-8 ovarian = test system: OVCAR-8 ovarian
A498 renal = test system: A498 renal
SN12C renal = test system: SN12C renal
HOP-62 NSCLC = test system: HOP-62 NSCLC
MCF7 breast = test system: MCF7 breast
SK-MEL-28 melanoma = test system: SK-MEL-28 melanoma
UO-31 renal = test system: UO-31 renal
SF-268 CNS = test system: SF-268 CNS
786-0 renal = test system: 786-0 renal
HL-60(TB) leukemia = test system: HL-60(TB) leukemia
OVCAR-3 ovarian = test system: OVCAR-3 ovarian
SK-OV-3 ovarian = test system: SK-OV-3 ovarian
HCT-116 colon = test system: HCT-116 colon
HCT-15 colon = test system: HCT-15 colon
A549 NSCLC = test system: A549 NSCLC
EKVX NSCLC = test system: EKVX NSCLC
NCI-H522 lung = test system: NCI-H522 lung
SF-295 CNS = test system: SF-295 CNS
T-47D breast = test system: T-47D breast
CCRF-CEM leukemia = test system: CCRF-CEM leukemia
HOP-92 NSCLC = test system: HOP-92 NSCLC
RXF 393 renal = test system: RXF 393 renal
OVCAR-4 ovarian = test system: OVCAR-4 ovarian
HCC-2998 colon = test system: HCC-2998 colon
SNB-19 CNS = test system: SNB-19 CNS
HT29 colon = test system: HT29 colon
MALME-3M melanoma = test system: MALME-3M melanoma
NCI-H226 lung = test system: NCI-H226 lung
MDA-MB-435 = test system: MDA-MB-435
SK-MEL-5 melanoma = test system: SK-MEL-5 melanoma
NCI-H23 lung = test system: NCI-H23 lung
COLO 205 colon = test system: COLO 205 colon
CAKI-1 renal = test system: CAKI-1 renal
UACC-257 melanoma = test system: UACC-257 melanoma
DU-145 prostate = test system: DU-145 prostate
MOLT-4 leukemia = test system: MOLT-4 leukemia

Cc1cccc2c3c(sc12)C(c1ccc(F)cc1)C(C#N)=C(/N=C/c1ccc(Cl)cc1)O3 (stereo unspecified)
GI50 (KM12 colon): 417 nM | TGI (KM12 colon): 13.2 µM | GI50 (NCI/ADR-RES ovarian): 302 nM | TGI (NCI/ADR-RES ovarian): 3.49 µM | GI50 (ACHN renal): 695 nM | TGI (ACHN renal): 15.5 µM | GI50 (SK-MEL-2 melanoma): 317 nM | TGI (SK-MEL-2 melanoma): 17.8 µM | GI50 (K-562 leukemia): 310 nM | TGI (K-562 leukemia): 14.2 µM | GI50 (IGROV1 ovarian): 632 nM | TGI (IGROV1 ovarian): 19.2 µM | GI50 (OVCAR-5 ovarian): 516 nM | TGI (OVCAR-5 ovarian): 15.4 µM | GI50 (SF-539 CNS): 277 nM | TGI (SF-539 CNS): 827 nM | GI50 (NCI-H460 lung): 348 nM | TGI (NCI-H460 lung): 3.56 µM | GI50 (U251 CNS): 423 nM | TGI (U251 CNS): 8.76 µM | GI50 (UACC-62 melanoma): 354 nM | TGI (UACC-62 melanoma): 13.4 µM | GI50 (SR leukemia): 317 nM | TGI (SR leukemia): 13.2 µM | GI50 (MDA-MB-231 breast): 700 nM | TGI (MDA-MB-231 breast): 14.8 µM | GI50 (SNB-75 CNS): 275 nM | TGI (SNB-75 CNS): 3.63 µM | GI50 (M14 melanoma): 310 nM | TGI (M14 melanoma): 8.38 µM | GI50 (TK-10 renal): 20.1 µM | TGI (TK-10 renal): 66.2 µM | GI50 (PC-3 prostate): 415 nM | TGI (PC-3 prostate): 13.5 µM | GI50 (RPMI-8226 leukemia): 421 nM | TGI (RPMI-8226 leukemia): 7.69 µM | GI50 (SW-620 colon): 383 nM | TGI (SW-620 colon): 13.1 µM | GI50 (HS 578T breast): 426 nM | TGI (HS 578T breast): 10.3 µM | GI50 (LOX IMVI melanoma): 555 nM | TGI (LOX IMVI melanoma): 6.3 µM | GI50 (BT-549 breast): 907 nM | TGI (BT-549 breast): 3.56 µM | GI50 (OVCAR-8 ovarian): 487 nM | TGI (OVCAR-8 ovarian): 4.18 µM | GI50 (A498 renal): 10.6 µM | TGI (A498 renal): 42 µM | GI50 (SN12C renal): 597 nM | TGI (SN12C renal): 12.2 µM | GI50 (HOP-62 NSCLC): 552 nM | TGI (HOP-62 NSCLC): 15.1 µM | GI50 (MCF7 breast): 322 nM | TGI (MCF7 breast): 14 µM | GI50 (SK-MEL-28 melanoma): 1430 nM | TGI (SK-MEL-28 melanoma): 22.6 µM | GI50 (UO-31 renal): 572 nM | TGI (UO-31 renal): 15.3 µM | GI50 (SF-268 CNS): 1830 nM | TGI (SF-268 CNS): 16.2 µM | GI50 (786-0 renal): 601 nM | TGI (786-0 renal): 12.5 µM | GI50 (HL-60(TB) leukemia): 339 nM | TGI (HL-60(TB) leukemia): 971 nM | GI50 (OVCAR-3 ovarian): 395 nM | TGI (OVCAR-3 ovarian): 5.39 µM | GI50 (SK-OV-3 ovarian): 521 nM | TGI (SK-OV-3 ovarian): 41.9 µM | GI50 (HCT-116 colon): 384 nM | TGI (HCT-116 colon): 6.3 µM | GI50 (HCT-15 colon): 366 nM | TGI (HCT-15 colon): 10.3 µM | GI50 (A549 NSCLC): 670 nM | TGI (A549 NSCLC): > 100 µM | GI50 (EKVX NSCLC): 1720 nM | TGI (EKVX NSCLC): 46.1 µM | GI50 (NCI-H522 lung): 91.3 nM | TGI (NCI-H522 lung): 372 nM | GI50 (SF-295 CNS): 339 nM | TGI (SF-295 CNS): 11.6 µM | GI50 (T-47D breast): 583 nM | TGI (T-47D breast): 53 µM | GI50 (CCRF-CEM leukemia): 404 nM | TGI (CCRF-CEM leukemia): > 37.3 µM | GI50 (HOP-92 NSCLC): 2190 nM | TGI (HOP-92 NSCLC): 15.8 µM | GI50 (RXF 393 renal): 222 nM | TGI (RXF 393 renal): 664 nM | GI50 (OVCAR-4 ovarian): 2270 nM | TGI (OVCAR-4 ovarian): 20.1 µM | GI50 (HCC-2998 colon): 414 nM | TGI (HCC-2998 colon): 2470 nM | GI50 (SNB-19 CNS): 552 nM | TGI (SNB-19 CNS): 19 µM | GI50 (HT29 colon): 532 nM | TGI (HT29 colon): 5.04 µM | GI50 (MALME-3M melanoma): 720 nM | TGI (MALME-3M melanoma): 23.2 µM | GI50 (NCI-H226 lung): 434 nM | TGI (NCI-H226 lung): 2960 nM | GI50 (MDA-MB-435): 175 nM | TGI (MDA-MB-435): 373 nM | GI50 (SK-MEL-5 melanoma): 488 nM | TGI (SK-MEL-5 melanoma): 3.29 µM | GI50 (NCI-H23 lung): 536 nM | TGI (NCI-H23 lung): 16.4 µM | GI50 (COLO 205 colon): 648 nM | TGI (COLO 205 colon): 2510 nM | GI50 (CAKI-1 renal): 389 nM | TGI (CAKI-1 renal): 15.2 µM | GI50 (UACC-257 melanoma): 3.81 µM | TGI (UACC-257 melanoma): 32.2 µM | GI50 (DU-145 prostate): 485 nM | TGI (DU-145 prostate): 19.3 µM | GI50 (MOLT-4 leukemia): 476 nM | TGI (MOLT-4 leukemia): 14.2 µM
